Test results as given in patent US10392368B2, “Pyrazolo and triazolo bicyclic compounds as JAK kinase inhibitors” (THERAVANCE BIOPHARMA R&D IP, LLC, priority 2017, dated 2019).

Experiments:
[1] = biological target: T1, Tyk2 (Homo sapiens, UniProt P29597); assay: Biochemical Tyk2 kinase assay (LanthaScreen)
T1 construct: GST; purchased Life Technologies
In short: (§1)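 Values are pKi, calculated by Cheng-Prusoff from IC50 obtained by robust 4-parameter fitting of percent inhibition. The kinase reaction used GFP-STAT1 peptide in HEPES pH 7.5 buffer with MgCl2, EGTA and Brij-35, ATP-initiated after compound pre-incubation, 1 h at ambient temperature.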

[2] = test system: IL-2 stimulated pSTAT5 in Tall-1 T cells; assay: Cellular JAK3 potency assay: inhibition of IL-2 stimulated pSTAT5 in Tall-1 T cells; type: cell-based, human; conditions: for Tall-1 (pIC50): IL-2 stimulated pSTAT5, Tall-1 T cells
In short: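 Tall-1 human T cells (45,000/well) in phenol red-free DMEM with 10% FBS were preincubated with compound 1 h at 37 °C, then stimulated with IL-2 (final 300 ng/ml) for 30 min. Lysate pSTAT5 read by AlphaLisa; IC50 from inhibition curves, reported as pIC50 (mean±SD).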

[3] = biological target: T2, JAK2 (Homo sapiens, UniProt O60674); assay: Biochemical JAK2 kinase assay (LanthaScreen)
T2 construct: GST; purchased Life Technologies
T2 sequence (O60674 whole entry): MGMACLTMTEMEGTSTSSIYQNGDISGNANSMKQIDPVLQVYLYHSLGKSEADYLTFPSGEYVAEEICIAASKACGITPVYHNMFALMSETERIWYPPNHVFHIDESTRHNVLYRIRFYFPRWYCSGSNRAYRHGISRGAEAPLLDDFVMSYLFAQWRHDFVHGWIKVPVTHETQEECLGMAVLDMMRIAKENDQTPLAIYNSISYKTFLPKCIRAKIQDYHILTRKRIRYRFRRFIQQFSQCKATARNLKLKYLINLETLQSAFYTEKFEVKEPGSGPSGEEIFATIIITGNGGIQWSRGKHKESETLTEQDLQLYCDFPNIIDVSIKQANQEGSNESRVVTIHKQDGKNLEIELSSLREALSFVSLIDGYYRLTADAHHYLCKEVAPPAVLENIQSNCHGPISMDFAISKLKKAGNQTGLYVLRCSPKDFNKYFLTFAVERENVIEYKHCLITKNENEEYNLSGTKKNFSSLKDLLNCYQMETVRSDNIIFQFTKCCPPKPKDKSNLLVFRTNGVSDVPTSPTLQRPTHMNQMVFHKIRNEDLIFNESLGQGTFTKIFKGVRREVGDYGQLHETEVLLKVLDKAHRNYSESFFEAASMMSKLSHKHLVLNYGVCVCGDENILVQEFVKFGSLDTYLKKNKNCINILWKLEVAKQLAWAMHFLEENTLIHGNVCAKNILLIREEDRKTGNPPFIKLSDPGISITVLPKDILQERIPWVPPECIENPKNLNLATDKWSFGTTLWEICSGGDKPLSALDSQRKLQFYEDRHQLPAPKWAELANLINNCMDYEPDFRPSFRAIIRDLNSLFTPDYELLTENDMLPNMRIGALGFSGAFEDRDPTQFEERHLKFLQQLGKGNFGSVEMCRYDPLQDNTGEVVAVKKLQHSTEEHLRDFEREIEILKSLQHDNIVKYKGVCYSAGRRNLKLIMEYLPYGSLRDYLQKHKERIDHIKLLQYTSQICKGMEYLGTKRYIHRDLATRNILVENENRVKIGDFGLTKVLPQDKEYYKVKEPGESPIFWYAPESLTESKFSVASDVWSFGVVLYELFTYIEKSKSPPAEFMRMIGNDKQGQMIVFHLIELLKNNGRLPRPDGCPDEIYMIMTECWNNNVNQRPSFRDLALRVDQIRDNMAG
In short: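 GST-tagged recombinant JAK2 pre-incubated 1 h at ambient temperature with compound and GFP-STAT1 peptide in HEPES pH 7.5/MgCl2 buffer, then ATP added for a 1 h reaction with 1% DMSO. TR-FRET read after EDTA and Tb-anti-pSTAT1 (pTyr701) addition; IC50 from 4-parameter fit, converted to pKi by Cheng-Prusoff.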

[4] = biological target: T3, JAK1 (Homo sapiens, UniProt P23458); assay: Biochemical JAK1 kinase assay (LanthaScreen)
T3 construct: GST; purchased Life Technologies
T3 sequence (P23458 whole entry): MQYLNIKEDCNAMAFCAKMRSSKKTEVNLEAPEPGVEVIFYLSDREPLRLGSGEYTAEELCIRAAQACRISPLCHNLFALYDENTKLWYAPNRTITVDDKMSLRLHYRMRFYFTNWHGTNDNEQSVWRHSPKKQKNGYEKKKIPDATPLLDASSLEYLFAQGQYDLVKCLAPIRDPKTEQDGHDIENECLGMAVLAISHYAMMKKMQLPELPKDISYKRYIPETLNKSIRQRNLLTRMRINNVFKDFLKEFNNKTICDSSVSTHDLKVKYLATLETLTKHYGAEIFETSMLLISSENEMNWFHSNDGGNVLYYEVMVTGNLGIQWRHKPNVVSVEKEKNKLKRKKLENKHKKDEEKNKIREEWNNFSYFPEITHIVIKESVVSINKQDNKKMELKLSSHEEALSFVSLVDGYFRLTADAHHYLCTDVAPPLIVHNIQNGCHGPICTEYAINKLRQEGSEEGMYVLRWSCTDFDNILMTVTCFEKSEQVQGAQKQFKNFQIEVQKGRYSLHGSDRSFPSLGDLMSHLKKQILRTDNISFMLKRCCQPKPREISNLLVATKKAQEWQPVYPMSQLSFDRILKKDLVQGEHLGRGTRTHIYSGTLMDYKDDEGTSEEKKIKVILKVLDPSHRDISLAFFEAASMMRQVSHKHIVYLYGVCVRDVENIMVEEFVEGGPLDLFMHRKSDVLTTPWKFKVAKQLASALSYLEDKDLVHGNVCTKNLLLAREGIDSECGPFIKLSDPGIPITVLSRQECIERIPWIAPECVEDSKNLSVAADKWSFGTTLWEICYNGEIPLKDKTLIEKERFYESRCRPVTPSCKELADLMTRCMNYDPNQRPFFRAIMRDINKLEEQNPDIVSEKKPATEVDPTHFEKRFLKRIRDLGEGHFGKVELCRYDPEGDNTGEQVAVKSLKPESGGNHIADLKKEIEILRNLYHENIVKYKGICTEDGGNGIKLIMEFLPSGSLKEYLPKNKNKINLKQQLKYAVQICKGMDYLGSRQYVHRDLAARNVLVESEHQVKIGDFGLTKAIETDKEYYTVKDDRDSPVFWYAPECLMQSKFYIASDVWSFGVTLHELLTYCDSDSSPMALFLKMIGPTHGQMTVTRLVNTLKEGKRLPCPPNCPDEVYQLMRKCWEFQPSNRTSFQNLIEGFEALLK
In short: as §1

[5] = biological target: T4, JAK3 (Homo sapiens, UniProt P52333); assay: Biochemical JAK3 kinase assay (LanthaScreen); design: GST; purchased Life Technologies; conditions: for JAK3 (pKi)-JAK1 (pKi): selectivity JAK3 over JAK1, difference of pKi
T4 sequence (P52333 1-1124): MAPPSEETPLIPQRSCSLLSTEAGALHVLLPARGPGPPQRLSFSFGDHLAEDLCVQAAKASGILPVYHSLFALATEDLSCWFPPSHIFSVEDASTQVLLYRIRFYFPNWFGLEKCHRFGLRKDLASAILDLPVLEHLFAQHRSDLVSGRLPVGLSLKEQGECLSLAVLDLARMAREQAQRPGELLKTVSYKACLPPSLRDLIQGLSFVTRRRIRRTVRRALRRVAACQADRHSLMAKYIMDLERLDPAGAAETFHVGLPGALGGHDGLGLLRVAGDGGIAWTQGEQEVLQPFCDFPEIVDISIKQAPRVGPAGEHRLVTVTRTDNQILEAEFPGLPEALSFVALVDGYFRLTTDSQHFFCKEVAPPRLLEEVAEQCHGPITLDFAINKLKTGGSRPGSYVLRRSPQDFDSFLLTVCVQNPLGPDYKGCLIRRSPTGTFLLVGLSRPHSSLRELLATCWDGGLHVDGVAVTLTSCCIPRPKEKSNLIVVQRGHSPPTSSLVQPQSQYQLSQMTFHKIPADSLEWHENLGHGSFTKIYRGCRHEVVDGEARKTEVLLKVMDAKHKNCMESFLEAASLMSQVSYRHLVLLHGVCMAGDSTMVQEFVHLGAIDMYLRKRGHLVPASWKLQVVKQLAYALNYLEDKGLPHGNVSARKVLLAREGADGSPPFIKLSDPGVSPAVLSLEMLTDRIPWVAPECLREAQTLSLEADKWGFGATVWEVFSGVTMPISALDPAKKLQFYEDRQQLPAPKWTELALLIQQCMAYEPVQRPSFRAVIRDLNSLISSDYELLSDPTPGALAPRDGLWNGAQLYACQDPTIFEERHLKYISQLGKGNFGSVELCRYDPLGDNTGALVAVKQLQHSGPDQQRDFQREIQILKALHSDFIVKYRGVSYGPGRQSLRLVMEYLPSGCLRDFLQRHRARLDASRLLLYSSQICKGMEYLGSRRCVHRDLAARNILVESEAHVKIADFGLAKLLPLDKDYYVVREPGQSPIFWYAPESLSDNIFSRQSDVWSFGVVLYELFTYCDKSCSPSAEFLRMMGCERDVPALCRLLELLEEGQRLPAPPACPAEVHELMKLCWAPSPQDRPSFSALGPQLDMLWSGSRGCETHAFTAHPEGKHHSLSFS
In short: as §1

T1 sequence (P29597 whole entry): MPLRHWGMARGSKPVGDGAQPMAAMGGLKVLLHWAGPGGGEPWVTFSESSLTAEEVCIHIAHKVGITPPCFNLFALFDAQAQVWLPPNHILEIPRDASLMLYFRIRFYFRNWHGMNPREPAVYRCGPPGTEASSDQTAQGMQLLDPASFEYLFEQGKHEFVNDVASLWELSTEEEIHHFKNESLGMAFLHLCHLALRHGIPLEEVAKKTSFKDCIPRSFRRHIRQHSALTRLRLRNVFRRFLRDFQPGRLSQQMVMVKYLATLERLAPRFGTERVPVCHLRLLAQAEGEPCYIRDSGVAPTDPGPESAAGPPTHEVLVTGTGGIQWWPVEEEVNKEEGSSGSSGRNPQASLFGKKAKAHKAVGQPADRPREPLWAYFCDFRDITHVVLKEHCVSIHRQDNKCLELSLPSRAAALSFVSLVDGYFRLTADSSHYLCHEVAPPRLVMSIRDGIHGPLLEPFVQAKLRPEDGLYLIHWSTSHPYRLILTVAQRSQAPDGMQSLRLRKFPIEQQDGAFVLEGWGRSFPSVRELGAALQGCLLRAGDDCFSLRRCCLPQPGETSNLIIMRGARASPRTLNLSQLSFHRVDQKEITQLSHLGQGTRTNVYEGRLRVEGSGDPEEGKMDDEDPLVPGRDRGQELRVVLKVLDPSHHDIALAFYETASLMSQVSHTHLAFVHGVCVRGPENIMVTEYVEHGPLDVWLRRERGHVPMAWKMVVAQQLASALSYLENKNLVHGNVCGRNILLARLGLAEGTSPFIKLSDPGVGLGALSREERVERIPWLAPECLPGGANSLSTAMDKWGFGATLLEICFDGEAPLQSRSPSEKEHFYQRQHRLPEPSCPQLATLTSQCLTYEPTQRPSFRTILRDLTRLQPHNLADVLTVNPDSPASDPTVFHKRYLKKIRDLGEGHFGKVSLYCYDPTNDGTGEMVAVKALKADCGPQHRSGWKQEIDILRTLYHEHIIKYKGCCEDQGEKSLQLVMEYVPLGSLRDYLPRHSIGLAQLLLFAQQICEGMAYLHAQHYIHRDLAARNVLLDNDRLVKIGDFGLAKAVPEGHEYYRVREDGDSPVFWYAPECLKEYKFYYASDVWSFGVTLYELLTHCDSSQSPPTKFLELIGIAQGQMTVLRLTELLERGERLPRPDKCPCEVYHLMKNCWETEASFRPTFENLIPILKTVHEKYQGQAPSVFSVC

Row | SMILES | Tyk 2 (pKi) [1] | Tall-1 (pIC50) [2] | JAK 2 (pKi) [3] | JAK 1 (pKi) [4] | JAK 3 (pKi) [5] | JAK3 (pKi)-JAK1 (pKi) [5] | Ki ([1]; read-out: Tyk 2 (pKi) (converted)) | IC50 ([2]; Homo sapiens, TALL-1, IL-2 stimulated pSTAT5, Tall-1 T cells, read-out: Tall-1 (pIC50) (converted)) | Ki ([3]; read-out: JAK 2 (pKi) (converted)) | Ki ([4]; read-out: JAK 1 (pKi) (converted)) | Ki ([5]; read-out: JAK 3 (pKi) (converted))
1 | CN(C)C/C=C/C(=O)N1CCC(C)(Nc2cc(-c3ccc(O)c(Cl)c3)cc3[nH]ncc23)CC1 [Compound 7-8] | E (a pKi value of 7 or below (Ki of 100 nM or above)) | B (a pIC50 value between 6.7 (included) and 7.5 (IC50 between 200 nM and 32 nM)) | E (a pKi value of 7 or below (Ki of 100 nM or above)) | E (a pKi value of 7 or below (Ki of 100 nM or above)) | A (a pKi value≥10 (Ki≤0.1 nM)) | A (a value of 3 or above) |  |  |  |  | 
2 | C=CC(=O)N1CCC(N(C)c2cc(-c3ccc(O)c(F)c3)cc3[nH]ncc23)CC1 [Compound 7-9] |  |  |  |  |  | A (a value of 3 or above) | > 100 nM | < 31.6 nM | 10 to 100 nM | > 100 nM | < 0.1 nM
3 | C=CC(=O)N1CCC(N(C)c2cc(-c3ccc(O)c(F)c3)cc3[nH]ncc23)CC1 [Compound 7-10] | E (a pKi value of 7 or below (Ki of 100 nM or above)) | B (a pIC50 value between 6.7 (included) and 7.5 (IC50 between 200 nM and 32 nM)) | D (a pKi value between 7 and 8 (Ki between 100 nM and 10 nM)) | E (a pKi value of 7 or below (Ki of 100 nM or above)) | B (a pKi value between 9 and 10 (Ki between 1 nM and 0.1 nM)) | A (a value of 3 or above) |  |  |  |  | 
4 | C=CC(=O)N1CCC(C)(Nc2cc(-c3ccc(O)c(Cl)c3)cc3[nH]ncc23)CC1 [Compound 7-11] | E (a pKi value of 7 or below (Ki of 100 nM or above)) | A (a pIC50 value≥7.5 (IC50≤32 nM)) | D (a pKi value between 7 and 8 (Ki between 100 nM and 10 nM)) | E (a pKi value of 7 or below (Ki of 100 nM or above)) | A (a pKi value≥10 (Ki≤0.1 nM)) | A (a value of 3 or above) |  |  |  |  | 
5 | CN(C)C/C=C/C(=O)N1CCC(C)(Nc2cc(-c3ccc(O)c(F)c3)cc3[nH]ncc23)CC1 [Compound 7-12] | E (a pKi value of 7 or below (Ki of 100 nM or above)) | B (a pIC50 value between 6.7 (included) and 7.5 (IC50 between 200 nM and 32 nM)) | D (a pKi value between 7 and 8 (Ki between 100 nM and 10 nM)) | E (a pKi value of 7 or below (Ki of 100 nM or above)) | B (a pKi value between 9 and 10 (Ki between 1 nM and 0.1 nM)) | A (a value of 3 or above) |  |  |  |  | 
6 | C=CC(=O)N1CCC(C)(Nc2nc(-c3ccc(O)cc3)cc3[nH]ncc23)CC1 [Compound 7-13] | E (a pKi value of 7 or below (Ki of 100 nM or above)) | A (a pIC50 value≥7.5 (IC50≤32 nM)) | D (a pKi value between 7 and 8 (Ki between 100 nM and 10 nM)) | E (a pKi value of 7 or below (Ki of 100 nM or above)) | A (a pKi value≥10 (Ki≤0.1 nM)) | A (a value of 3 or above) |  |  |  |  | 
7 | C=CC(=O)N1CCC(C)(Nc2nc(-c3ccc(O)c(Cl)c3)cc3[nH]ncc23)CC1 [Compound 7-14] | E (a pKi value of 7 or below (Ki of 100 nM or above)) | A (a pIC50 value≥7.5 (IC50≤32 nM)) | D (a pKi value between 7 and 8 (Ki between 100 nM and 10 nM)) | E (a pKi value of 7 or below (Ki of 100 nM or above)) | B (a pKi value between 9 and 10 (Ki between 1 nM and 0.1 nM)) | B (a value of 2.3 to 3) |  |  |  |  | 
8 | C=CC(=O)N1CCCC(Oc2cc(-c3ccc(O)cc3)cc3[nH]ncc23)C1 (stereo not drawn) [Compound 8-1] | E (a pKi value of 7 or below (Ki of 100 nM or above)) | A (a pIC50 value≥7.5 (IC50≤32 nM)) | D (a pKi value between 7 and 8 (Ki between 100 nM and 10 nM)) | E (a pKi value of 7 or below (Ki of 100 nM or above)) | B (a pKi value between 9 and 10 (Ki between 1 nM and 0.1 nM)) | B (a value of 2.3 to 3) |  |  |  |  | 
9 | CN(C)CC=CC(=O)N1CCCC(Oc2cc(-c3ccc(O)c(Cl)c3)cc3[nH]ncc23)C1 (stereo not drawn) [Compound 8-2] | E (a pKi value of 7 or below (Ki of 100 nM or above)) | B (a pIC50 value between 6.7 (included) and 7.5 (IC50 between 200 nM and 32 nM)) | D (a pKi value between 7 and 8 (Ki between 100 nM and 10 nM)) | E (a pKi value of 7 or below (Ki of 100 nM or above)) | B (a pKi value between 9 and 10 (Ki between 1 nM and 0.1 nM)) | A (a value of 3 or above) |  |  |  |  | 
10 | C=CC(=O)N1CCCC(Oc2cc(-c3ccc(O)c(Cl)c3)cc3[nH]ncc23)C1 (stereo not drawn) [Compound 8-3] | E (a pKi value of 7 or below (Ki of 100 nM or above)) | A (a pIC50 value≥7.5 (IC50≤32 nM)) | D (a pKi value between 7 and 8 (Ki between 100 nM and 10 nM)) | E (a pKi value of 7 or below (Ki of 100 nM or above)) | B (a pKi value between 9 and 10 (Ki between 1 nM and 0.1 nM)) | A (a value of 3 or above) |  |  |  |  | 
11 | CN(C)CC=CC(=O)N1CCCC(Oc2cc(-c3ccc(O)c(F)c3)cc3[nH]ncc23)C1 (stereo not drawn) [Compound 8-4] | E (a pKi value of 7 or below (Ki of 100 nM or above)) | B (a pIC50 value between 6.7 (included) and 7.5 (IC50 between 200 nM and 32 nM)) | D (a pKi value between 7 and 8 (Ki between 100 nM and 10 nM)) | E (a pKi value of 7 or below (Ki of 100 nM or above)) | B (a pKi value between 9 and 10 (Ki between 1 nM and 0.1 nM)) | B (a value of 2.3 to 3) |  |  |  |  | 
12 | C=CC(=O)N1CCCC(Oc2cc(-c3ccc(O)c(F)c3)cc3[nH]ncc23)C1 (stereo not drawn) [Compound 8-5] | E (a pKi value of 7 or below (Ki of 100 nM or above)) | A (a pIC50 value≥7.5 (IC50≤32 nM)) | D (a pKi value between 7 and 8 (Ki between 100 nM and 10 nM)) | E (a pKi value of 7 or below (Ki of 100 nM or above)) | A (a pKi value≥10 (Ki≤0.1 nM)) | A (a value of 3 or above) |  |  |  |  | 
13 | C=CC(=O)N1CCCC(Oc2nc(-c3ccc(O)cc3)cc3[nH]ncc23)C1 (stereo not drawn) [Compound 8-7] | E (a pKi value of 7 or below (Ki of 100 nM or above)) | B (a pIC50 value between 6.7 (included) and 7.5 (IC50 between 200 nM and 32 nM)) | D (a pKi value between 7 and 8 (Ki between 100 nM and 10 nM)) | E (a pKi value of 7 or below (Ki of 100 nM or above)) | B (a pKi value between 9 and 10 (Ki between 1 nM and 0.1 nM)) | A (a value of 3 or above) |  |  |  |  | 
14 | C=CC(=O)N1CCC[C@H](Oc2nc(-c3ccc(O)c(F)c3)cc3[nH]ncc23)C1 [Compound 8-11] | E (a pKi value of 7 or below (Ki of 100 nM or above)) | A (a pIC50 value≥7.5 (IC50≤32 nM)) | D (a pKi value between 7 and 8 (Ki between 100 nM and 10 nM)) | D (a pKi value between 7 and 8 (Ki between 100 nM and 10 nM)) | A (a pKi value≥10 (Ki≤0.1 nM)) | B (a value of 2.3 to 3) |  |  |  |  | 
